Laboratory results taken from US10238713B2, “Cyclic tetrapeptides and therapeutic applications thereof” (LODZ UNIVERSITY OF TECHNOLOGY, priority 2010, dated 2019).
Non-standard residues stand in square brackets, D forms with d. Residues, ends and D or L forms follow the SMILES beside them. β3hF = N[C@H](CC(=O)O)Cc1ccccc1

Experiments:
[1] = test system: human peripheral mononuclear blood cells (PBMC); experiment: Cytotoxic test on human blood mononuclear cells (24 h, colorimetric); details: at 40 μg/ml, FIG. 5
Procedure: For evaluation of toxicity of the compound of formula I-A, human peripheral mononuclear blood cells (PBMC) were chosen. This fraction consists of approximately 80% lymphocytes and 20% monocytes. As a reference compound, cyclolinopeptide (CLA) was selected since the compound of formula I-A shares a part of the sequence of CLA.
After centrifugation at 1200×g for 20 min, the mononuclear cells from the interphase were harvested and washed 3 times with PBS. The cells were re-suspended in a standard culture medium consisting of RPMI-1640 medium, L-glutamine, sodium pyruvate, 2-mercaptoethanol, 100 μg/ml each of streptomycin and penicillin, and 10% fetal calf serum. The cells were distributed to in 96-well flat-bottom culture plates at density of 2×10^5/100 μl. The compounds (formula I-A and CLA) were initially dissolved in DMSO (5 mg/500 μl) and subsequently in the culture medium. DMSO, appropriately diluted with the culture medium, was used as a control. After 24 h incubation in a cell culture incubator, cell viability was determined by a colorimetric method (Hansen et al., J Immunol Methods, 1989, 119, 203-210).

[2] = test system: concanavalin A-induced mouse splenocyte proliferation; experiment: Proliferative response of splenocytes to concanavalin A (MTT); type: cell-based
Procedure: Spleens were pressed against a plastic screen into 0.83% NH4Cl solution to lyse erythrocytes (5 min incubation at room temperature). The cells were then washed twice with Hanks' medium, passed through glass wool column to remove debris, and re-suspended in the culture medium, referred to below as the “culture medium”, consisting of RPMI-1640, supplemented with 10% of fetal calf serum, L-glutamine, sodium pyruvate, 2-mercaptoethanol, streptomycin and penicillin (100 μg/ml). The cells were then distributed into 96-well flat-bottom tissue culture plates (Nunc) at a density of 2×10^5 cells/100 μl/well. Con A (2.5 μg/ml) was added to induce cell proliferation. The compounds were added to the cultures at doses of 1-100 μg/ml. After a three-day incubation, cell proliferation was determined using the colorimetric MTT method (Hansen M B, J Immunol Methods, 1989, 119, 203-210). The results were presented as the mean optical density (OD) at 550 nm ±SE from quadriplicate determinations (wells).

[3] = test system: splenocytes; experiment: Toxicity test on splenocytes (24 h, MTT); type: cell-based, mouse; details: 100 μg/ml (printed 100 μg/m for I-C)
Procedure: Cell survival was determined by MTT colorimetric method. The results were presented as mean optical density (OD) at 550 nm from 4 wells. The viability of cells in respective compound concentrations was compared to appropriate DMSO control groups (100% survival), corresponding to respective compound concentrations.

[4] = test system: mouse splenocyte cultures, humoral immune response to SRBC; experiment: Secondary humoral immune response in vitro to SRBC (AFC number); type: cell-based
Procedure: Mice were sensitized intraperitoneally with 0.2 ml of 5% (v/v) SRBC suspension. After four days spleens from these mice were isolated and single cell suspensions prepared by homogenization in PBS solution. After washing the cells in PBS by centrifugation, the cells were re-suspended in the culture medium at a density of 5×10^6 cells/ml. The cells were subsequently distributed to 24-well culture plates in 1 ml aliquots and 0.05 ml of 0.005% SRBC was added as the antigen to each well. The compounds were added to the cultures at the beginning of the four-day incubation period at concentration ranges of 1-100 μg/ml. The number of antibody-forming cells (AFC) in the cultures was determined using a method of local hemolysis in agar gel according to Mishell et al., J Exp Med, 1967, 126, 423-442.

Row | SMILES | cytotoxic effect on PBMC [1] | effect on concanavalin A-induced splenocyte proliferation ([2]; 100 μg/ml) | effect on concanavalin A-induced splenocyte proliferation ([2]; lower concentrations (below 100 μg/ml)) | toxicity to splenocytes [3] [%] | effect on concanavalin A-induced mouse splenocyte proliferation ([2]; 50-100 μg/ml) | suppression of in vitro humoral immune response to SRBC ([4]; 10 μg/m as printed) [%] | suppression of in vitro humoral immune response to SRBC ([4]; 100 μg/m as printed) [%]
1 | CC[C@H](C)[C@@H]1NC(=O)[C@H](CC(C)C)NC(=O)[C@H](Cc2ccccc2)NC(=O)[C@H](Cc2ccccc2)NC(=O)[C@@H]2CCCN2C(=O)[C@@H]2CCCN2C(=O)[C@H](C(C)C)NC(=O)[C@H](CC(C)C)NC(=O)[C@H]([C@@H](C)CC)NC1=O [CLA, Cyclolinopeptide A] (cyclo(FFLIILVPP)) | statistically significant cytotoxic effect |  |  |  |  |  | 
2 | O=C1N[C@@H](Cc2ccccc2)CC(=O)N2CCC[C@H]2C(=O)N2CCC[C@H]2C(=O)N[C@H]1Cc1ccccc1 [I-B] (cyclo(F[β3hF]PP)) |  | weak antiproliferative effect | no such effect was observed | 30 |  |  | 
3 | O=C1C[C@H](Cc2ccccc2)NC(=O)[C@@H]2CCCN2C(=O)[C@@H]2CCCN2C(=O)C[C@H](Cc2ccccc2)N1 [I-C] (cyclo(PP[β3hF][β3hF])) |  |  |  | 70 | strong inhibitory effect | 33 | 80
